36 compounds from patent US20160045505A1, “COMPOUNDS AND COMPOSITIONS FOR THE TREATMENT OF PARASITIC DISEASES” (NOVARTIS AG, priority 2013, published 2016) can be followed below.

Assay [1] has as its system Leishmania donovani axenic amastigote parasites. Briefly: Leishmania donovani axenic amastigote proliferation assay (Cell TiterGlo luminescence, 2 day incubation). Type of assay: cell-based. As to conditions: Leishmania donovani, axenic amastigotes, inhibition of proliferation; read-out: L. donovani amastigotes EC50. On the technique in general: ATP-based viability assays read luminescence as a measure of living cells.

The subject of assay [2] is L. donovani HU3 strain in mouse peritoneal macrophages. Description: Assay for proliferation of Leishmania parasites in infected mouse peritoneal macrophages (SybrGreen staining, high-content imaging, 5 days). Type of assay: cell-based, Leishmania donovani. As to conditions: Leishmania donovani, Peritoneal macrophage, L. donovani in mouse peritoneal macrophages, inhibition of proliferation; read-out: L. donovani Macrophage EC50.

Assay [3] concerns Trypanosoma brucei Lister 427 strain, bloodstream form. Briefly: Assay for proliferation of kinetoplastid parasite Trypanosoma brucei (Cell Titer Glo, 48 hours). Type of assay: cell-based. The conditions noted are these: Trypanosoma brucei, read-out: T. brucei EC50. The gist of the method: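 Bloodstream-form T. brucei Lister 427 in HMI-9 medium was exposed to compound (DMSO vehicle) for 48 hours at 37° C, 5% CO2. Parasite growth was read as ATP by CellTiter-Glo luminescence, with EC50 calculated from percent inhibition.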

Assay [4] relates to Trypanosoma cruzi amastigotes (Tulahuen strain expressing Lac-Z) cultured in 3T3 fibroblast cells. Briefly: microbe, parasite or virus in culture. In kind it is cell-based. As to conditions: Trypanosoma cruzi, TULAHUEN, Fibroblast, T. cruzi amastigotes in 3T3 fibroblast cells, inhibition of proliferation; read-out: T cruzi EC50.
The mark [5] stands for this setting: T. brucei Lister 427 bloodstream form, inhibition of proliferation.

Where two headings read alike, the source gives them in different places. Where only a bound is given, the exact number is not on record here.

The term EC50 denotes the midpoint of the concentration-response curve. For `O=C(Nc1ccc(F)c(-c2cn3cc(Cl)cnc3n2)c1)N1CC[C@@H](F)C1` [Compound 236], the EC50 in assay [1] came out at 0.095 µM; in assay [2], 0.434 µM; in assay [3] (setting [5]), 0.036 µM; in assay [4] it was 0.098 µM.

As for `O=C(Nc1ccc(F)c(-c2cn3cc(Cl)cnc3n2)c1)N1CCC1` [Compound 237], the EC50 came out at 0.217 µM in assay [1], 0.877 µM in assay [2], 0.122 µM in assay [3] (setting [5]) and 0.229 µM in assay [4].

Take `O=C(Nc1ccc(F)c(-c2cn3cc(Cl)cnc3n2)c1)N1CC(F)C1` [Compound 238]: the EC50 in assay [1] amounted to 0.208 µM; in assay [2] it was 0.788 µM; in assay [3] (setting [5]) it was 0.117 µM; in assay [4], 0.233 µM.

For `CN(C)C(=O)Nc1ccc(F)c(-c2cn3cc(C(F)F)cnc3n2)c1` [Compound 239], the EC50 stood at 0.515 µM in assay [1], 2.2 µM in assay [2], 0.35 µM in assay [3] (setting [5]) and 0.372 µM in assay [4].

As to `CC(C)OC(=O)Nc1cnc2nc(-c3cc(NC(=O)C4CC4)ccc3F)cn2c1` [Compound 240], the EC50 is 1.18 µM in assay [1], greater than 50 µM in assay [2], 0.439 µM in assay [3] (setting [5]) and 0.602 µM in assay [4].

For `CC(C)OC(=O)Nc1cnc2nc(-c3cc(NC(=O)c4nccs4)ccc3F)cn2c1` [Compound 242], the concentration for a half-maximal effect (EC50) amounted to 0.687 µM in assay [1], 2.2 µM in assay [2], 0.477 µM in assay [3] (setting [5]) and 0.198 µM in assay [4].

As for `CC(C)OC(=O)Nc1cnc2nc(-c3cc(NC(=O)c4nccs4)ccc3Cl)cn2c1` [Compound 243], the EC50 came out at 0.78 µM in assay [1], 2.61 µM in assay [2], 0.369 µM in assay [3] (setting [5]) and 0.15 µM in assay [4].

Consider `CC(C)OC(=O)Nc1cnc2nc(-c3cc(NC(=O)c4ccco4)ccc3Cl)cn2c1` [Compound 244], for which the EC50 was determined as 0.152 µM in assay [1], 0.345 µM in assay [2], 0.065 µM in assay [3] (setting [5]) and 0.055 µM in assay [4].

Turning to `CC(C)OC(=O)Nc1cnc2nc(-c3cc(NC(=O)C4CC4)ccc3Cl)cn2c1` [Compound 245], the EC50 in assay [1] worked out at 1.69 µM; in assay [2], 2.03 µM; in assay [3] (setting [5]), 1.4 µM; in assay [4] it was 1.13 µM.

Turning to `CC(C)OC(=O)Nc1cnc2nc(-c3cc(NC(=O)N(C)C)ccc3Cl)cn2c1` [Compound 246], the EC50 was found to be 0.562 µM in assay [1], 1.19 µM in assay [2], 0.085 µM in assay [3] (setting [5]) and 0.622 µM in assay [4].

Take `CCC(=O)Nc1ccc(Cl)c(-c2cn3cc(NC(=O)OC(C)C)cnc3n2)c1` [Compound 247]: the EC50 in assay [1] was found to be 0.74 µM; in assay [2], 3.25 µM; in assay [3] (setting [5]), 0.367 µM; in assay [4], 0.575 µM.

For `Cc1nc(C)c(C(=O)Nc2ccc(F)c(-c3cn4cc(NC(=O)C5CC5)cnc4n3)c2)o1` [Compound 248], the EC50 in assay [1] was 0.191 µM; in assay [2], 0.411 µM; in assay [3] (setting [5]) it was 0.169 µM; in assay [4] it was greater than 20 µM.

Consider `CC(C)CN(C)C(=O)Nc1ccc(Cl)c(-c2cn3cc(NC(=O)OC(C)C)cnc3n2)c1` [Compound 249], for which the EC50 in assay [1] came to 3.37 µM; in assay [2], 5.55 µM; in assay [3] it was 4.07 µM; in assay [4], 1.33 µM.

As for `CCN(C)C(=O)Nc1ccc(Cl)c(-c2cn3cc(NC(=O)OC(C)C)cnc3n2)c1` [Compound 250], the concentration for a half-maximal effect (EC50) worked out at 0.498 µM in assay [1], 0.839 µM in assay [2], 0.112 µM in assay [3] (setting [5]) and 0.631 µM in assay [4].

With `Cc1nc(C)c(C(=O)Nc2ccc(F)c(-c3cn4cc(-c5cnccn5)cnc4n3)c2)o1` [Compound 251], the EC50 was found to be 0.035 µM in assay [1], 0.085 µM in assay [2], 0.045 µM in assay [3] (setting [5]) and 0.061 µM in assay [4].

As to `CC(C)OC(=O)Nc1cnc2nc(-c3cc(NC(N)=O)ccc3Cl)cn2c1` [Compound 252], the EC50 was greater than 25 µM in assay [1], greater than 50 µM in assay [2], 33 µM in assay [3] (setting [5]) and greater than 20 µM in assay [4].

For `CC(C)OC(=O)Nc1cnc2nc(-c3cc(NC(=O)N(C)CC(F)(F)F)ccc3Cl)cn2c1` [Compound 255], the EC50 was found to be 0.364 µM in assay [1], 0.502 µM in assay [2], 0.122 µM in assay [3] (setting [5]) and 0.329 µM in assay [4].

Regarding `CC(C)OC(=O)Nc1cnc2nc(-c3cc(NC(=O)N(C)c4nccn4C)ccc3Cl)cn2c1` [Compound 256], the EC50 is greater than 25 µM in assay [1], greater than 50 µM in assay [2], 31.6 µM in assay [3] (setting [5]) and greater than 20 µM in assay [4].

For the compound `CC(C)OC(=O)Nc1cnc2nc(-c3cc(NC(=O)NN)ccc3Cl)cn2c1` [Compound 257], the EC50 in assay [1] was 9.22 µM; in assay [2], greater than 33.8 µM; in assay [3] (setting [5]) it was 4.65 µM; in assay [4] it was 4.05 µM.

As for `CC(C)OC(=O)Nc1cnc2nc(-c3cc(NC(=O)N4C[C@@H]5C[C@H]4CO5)ccc3Cl)cn2c1` [Compound 258], the EC50 is 20.2 µM in assay [1], greater than 42.5 µM in assay [2], 13.1 µM in assay [3] (setting [5]) and greater than 20 µM in assay [4].

As for `CC(C)OC(=O)Nc1cnc2nc(-c3cc(NC(=O)N4CCCC4c4ccccn4)ccc3Cl)cn2c1` (stereo not drawn) [Compound 259], the EC50 in assay [1] was greater than 22.1 µM; in assay [2], 23.7 µM; in assay [3] (setting [5]) it was 34.6 µM; in assay [4], 10.9 µM.

`CC(C)OC(=O)Nc1cnc2nc(-c3cc(NC(=O)N4CCC[C@@H]4C(F)(F)F)ccc3Cl)cn2c1` [Compound 260]: the EC50 in assay [1] was greater than 25 µM; in assay [2], 3.83 µM; in assay [3] (setting [5]), greater than 50 µM; in assay [4], 4.55 µM.

Take `CC(C)OC(=O)Nc1cnc2nc(-c3cc(NC(=O)N4CCC5(C4)CC5(F)F)ccc3Cl)cn2c1` (stereo not drawn) [Compound 261]: the EC50 is 4.32 µM in assay [1], 7.03 µM in assay [2], 1.22 µM in assay [3] (setting [5]) and 1.9 µM in assay [4].

As for `CC(C)CNC(=O)Nc1ccc(Cl)c(-c2cn3cc(NC(=O)OC(C)C)cnc3n2)c1` [Compound 263], the EC50 is 1.74 µM in assay [1], 3.53 µM in assay [2], 1.1 µM in assay [3] (setting [5]) and 1.32 µM in assay [4].

For `CC(C)OC(=O)Nc1cnc2nc(-c3cc(NC(=O)N4CC[C@H](F)C4)ccc3Cl)cn2c1` [Compound 264], the EC50 in assay [1] is 4.75 µM; in assay [2], greater than 14 µM; in assay [3] (setting [5]), 4.31 µM; in assay [4] it was 4.72 µM.

Consider `CO[C@@H]1CCN(C(=O)Nc2ccc(Cl)c(-c3cn4cc(NC(=O)OC(C)C)cnc4n3)c2)C1` [Compound 265], for which the half-maximal effective concentration (EC50) in assay [1] stood at 0.978 µM; in assay [2], 4.26 µM; in assay [3] (setting [5]), 1.55 µM; in assay [4], 3.93 µM.

For the compound `CC(C)OC(=O)Nc1cnc2nc(-c3cc(NC(=O)N4CC(F)(F)C(F)(F)C4)ccc3Cl)cn2c1` [Compound 266], the EC50 in assay [1] was found to be 1.26 µM; in assay [2], 3.37 µM; in assay [3] (setting [5]), 1.45 µM; in assay [4] it was 1.16 µM.

`CC(C)OC(=O)Nc1cnc2nc(-c3cc(NC(=O)N4CC[C@@H](F)C4)ccc3Cl)cn2c1` [Compound 267]: the EC50 in assay [1] was found to be 0.485 µM; in assay [2], 1.8 µM; in assay [3] (setting [5]), 0.116 µM; in assay [4], 1.92 µM.

In the case of `CC(C)OC(=O)Nc1cnc2nc(-c3cc(NC(=O)NC4CCC4)ccc3Cl)cn2c1` [Compound 269], the EC50 in assay [1] is 9.59 µM; in assay [2], 15.1 µM; in assay [3] (setting [5]), 3.57 µM; in assay [4], 4.16 µM.

On to `CC(C)OC(=O)Nc1cnc2nc(-c3cc(NC(=O)N4C(C)CCC4C)ccc3Cl)cn2c1` (stereo not drawn) [Compound 270], for which the EC50 in assay [1] was 2.9 µM; in assay [2], 2.2 µM; in assay [3] (setting [5]), 4.11 µM; in assay [4], 0.701 µM.

With `CC(C)OC(=O)Nc1cnc2nc(-c3cc(NC(=O)N4CCC(N(C)C)C4)ccc3Cl)cn2c1` (stereo not drawn) [Compound 275], the EC50 in assay [1] is greater than 25 µM; in assay [2], 17.1 µM; in assay [3] (setting [5]) it was 34.7 µM; in assay [4], 11.7 µM.

As for `CC(=O)N(C)C1CCN(C(=O)Nc2ccc(Cl)c(-c3cn4cc(NC(=O)OC(C)C)cnc4n3)c2)C1` (stereo not drawn) [Compound 276], the EC50 in assay [1] is greater than 25 µM; in assay [2], greater than 50 µM; in assay [3] (setting [5]), 8.72 µM; in assay [4] it was greater than 20 µM.

With `CC(C)OC(=O)Nc1cnc2nc(-c3cc(NC(=O)N4CC[C@@H](O)C4)ccc3Cl)cn2c1` [Compound 286], the EC50 in assay [1] was greater than 19.7 µM; in assay [2], greater than 50 µM; in assay [3] (setting [5]), 29.7 µM; in assay [4] it was greater than 20 µM.

For the compound `CC(C)OC(=O)Nc1cnc2nc(-c3cc(NC(=O)N4CC(F)C4)ccc3F)cn2c1` [Compound 287], the EC50 was 0.12 µM in assay [1], 0.402 µM in assay [2], 0.077 µM in assay [3] (setting [5]) and 1.43 µM in assay [4].

`O=C(Nc1ccc(F)c(-c2cn3cc(-c4ccccn4)cnc3n2)c1)N1CC(F)(F)C1` [Compound 296, 3,3-difluoro-N-(4-fluoro-3-(6-(pyridin-2-yl)imidazo[1,2-a]pyrimidin-2-yl)phenyl)azetidine-1-carboxamide]: the EC50 in assay [1] was 0.004 µM; in assay [2], 0.013 µM; in assay [3], 0.012 µM; in assay [4], 0.014 µM.

As for `O=C(Nc1ccc(F)c(-c2cn3cc(C(F)(F)F)cnc3n2)c1)N1CC[C@H](F)C1` [Compound 297], the concentration for a half-maximal effect (EC50) in assay [1] came out at 0.052 µM; in assay [2], 0.223 µM; in assay [3] (setting [5]), 0.051 µM; in assay [4], 0.037 µM.
